In patent US20250353873A1, “COMPOUNDS AND METHODS FOR MODULATING APOE EXPRESSION” (Ionis Pharmaceuticals, Inc., priority 2024, published 2025):
Strand notation (5' to 3'): a small letter for the sugar, then the base; units joined by * are phosphorothioate-linked, units joined directly phosphodiester-linked; [ ] holds rarer units or linkages, { } end groups; capitals alone tell only the bases. [ms] = mesyl phosphoramidate linkage; e = 2'-O-(2-methoxyethyl) (MOE); k = constrained ethyl (cEt); [5mC] = 5-methylcytosine; d = 2'-deoxy (DNA)

What was measured:
human APOE RNA [1] = assay: Dose-dependent reduction of human APOE RNA in HepG2 cells, electroporation, 20,000 cells per well, average of GAPDH- and PPIA-normalized results (Example 4, Table 12); type: cell-based; conditions: HepG2, 20,000 cells per well
Description: HepG2 cells plated at a density of 20,000 cells per well were treated by electroporation with various concentrations of modified oligonucleotide as specified in the tables below. […] APOE RNA levels were measured using the human primer probe set RTS3073 (described herein above). APOE RNA levels were normalized to human GAPDH, and human PPIA. Human GAPDH was amplified using human primer probe set RTS104 (described herein above). Human PPIA was amplified using human primer probe set mk_cycloA_2nd (described herein above) The average of the GAPDH-normalized results and the PPIA-normalized results are presented in the table below as percent APOE RNA, relative to the amount of APOE RNA in untreated control cells (% UTC). The half maximal inhibitory concentration (IC50) of each modified oligonucleotide was calculated in GraphPad Prism 10 (GraphPad Software, San Diego, CA) and is also presented in the table below.

human APOE RNA [2] = assay: Activity in APOE C57BL/6NTac-Apoeem7250 knock-in mice, single ICV bolus, 8 weeks (Example 11); type: in vivo; conditions: single ICV bolus 300 μg, 8 weeks post treatment, normalized to mouse Ppia
Procedure, shortened: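 Cortical and spinal cord human APOE RNA quantified by RT-qPCR 8 weeks after a single 300 μg ICV dose in knock-in mice, Ppia-normalized. Values are percent of levels in PBS-treated animals.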

human APOE RNA [3] = assay: Activity in APOE C57BL/6NTac-Apoeem7250 knock-in mice, single ICV bolus, 4 weeks (Example 10); type: in vivo; conditions: single ICV bolus 300 μg, 4 weeks post treatment, normalized to mouse Ppia
Procedure, shortened: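 Human APOE RNA, quantified by real-time RT-PCR with RTS3073 and normalized to mouse Ppia, was read in cortical brain and spinal cord 4 weeks post dosing. Dosing was a single ICV bolus of 300 μg per knock-in mouse; values are % of PBS-treated animals.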

human APOE RNA [4] = assay: Potency (dose response, ED50) in APOE C57BL/6NTac-Apoeem7250 knock-in mice, 4 weeks (Example 14); type: in vivo
Description: Modified oligonucleotides described above were tested in the APOE C57BL/6NTac-Apoeem7250 knock-in mouse model described above.
APOE C57BL/6NTac-Apoeem7250 knock-in mice were divided into groups of 3-4 mice each. A group of 3-4 mice received a single ICV bolus with PBS as a negative control.
Four weeks post treatment, mice were sacrificed, and RNA was extracted from cortical brain tissue and spinal cord for quantitative real-time RT-PCR analysis of RNA expression of […] using human primer probe set RTS3073 (described herein above). APOE RNA levels were normalized to mouse Ppia. Mouse Ppia was amplified using primer probe set m_cyclo24 (described herein above). Results are presented as percent human APOE RNA relative to the amount of APOE RNA in PBS treated animals, (% control). N.C. indicates values that were not calculated. Each experiment is identified in separate tables below.
The half maximal effective dose (ED50) of each modified oligonucleotide was calculated using GraphPad Prism 10 software (GraphPad Software, San Diego, CA).

human APOE RNA [5] = assay: Dose-dependent inhibition of human APOE RNA in differentiated SH-SY5Y cells, free uptake, 5 days (Example 5); type: cell-based; conditions: 5 days (Table 14)
Procedure, shortened: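 APOE RNA, measured by RTS3073 primer probe set and normalized to human PPIA, is reported as % of untreated control cells, with IC50 fitted. Cells were differentiated SH-SY5Y at 10,000/well, given modified oligonucleotide at several concentrations by free uptake for 5 days.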

How did the “APOE RNA (% UTC)” value (human APOE RNA [1]; 5 nM) turn out when “1778131: modified oligonucleotide complementary to human APOE RNA (eA*e[5mC]eTeTeGkG*dT*dG[ms]dA[ms]dA*dT*d[5mC]*dT*dT*dT*dA[ms]kTkT*eA*eA; antisense) [compound 1778131]” was run?
Its value is 102 % UTC.

What about the “APOE RNA (% UTC)” value (human APOE RNA [1]; 13 nM) of the same substance?
Its value is 86 % UTC.

What about the “APOE RNA (% UTC)” value (human APOE RNA [1]; 33 nM) of the same substance?
Its value is 85 % UTC.

And the “APOE RNA (% UTC)” value (human APOE RNA [1]; 82 nM)?
The value was 70 % UTC.

What about the “APOE RNA (% UTC)” value (human APOE RNA [1]; 205 nM) of the same substance?
The value was 56 % UTC.

What about the “APOE RNA (% UTC)” value (human APOE RNA [1]; 512 nM) of the same substance?
Its value is 36 % UTC.

And the “APOE RNA (% UTC)” value (human APOE RNA [1]; 1,280 nM)?
Its value is 25 % UTC.

What about the “APOE RNA (% UTC)” value (human APOE RNA [1]; 3,200 nM) of the same substance?
Its value is 25 % UTC.

What about the “APOE RNA (% UTC)” value (human APOE RNA [1]; 8,000 nM) of the same substance?
Its value is 5 % UTC.

And the “APOE RNA (% UTC)” value (human APOE RNA [1]; 20,000 nM)?
Its value is 6 % UTC.

What about the IC50 (human APOE RNA [1]; approximately 24 hours) of the same substance?
The IC50 was 290 nM.

And the “APOE RNA (% control) Cortex” value (human APOE RNA [2]; cortex)?
Its value is 29 % control.

And the “APOE RNA (% control) Spinal Cord” value (human APOE RNA [2]; spinal cord)?
Its value is 24 % control.

What about the “APOE RNA (% control) Cortex” value (human APOE RNA [3]; cortex) of the same substance?
The value was 29 % control.

What about the “APOE RNA (% control) Spinal Cord” value (human APOE RNA [3]; spinal cord) of the same substance?
The value was 49 % control.

And the “APOE RNA (% control) Cortex” value (human APOE RNA [4]; cortex, ICV dose 10 μg)?
The value was 115 % control.

And the “APOE RNA (% control) Cortex” value (human APOE RNA [4]; cortex, ICV dose 30 μg)?
Its value is 105 % control.

And the “APOE RNA (% control) Cortex” value (human APOE RNA [4]; cortex, ICV dose 100 μg)?
The value was 61 % control.

And the “APOE RNA (% control) Cortex” value (human APOE RNA [4]; cortex, ICV dose 300 μg)?
The value was 37 % control.

And the “APOE RNA (% control) Cortex” value (human APOE RNA [4]; cortex, ICV dose 700 μg)?
The value was 29 % control.

And the “ED 50 (μg) Cortex” value (human APOE RNA [4]; cortex, single ICV bolus, GraphPad Prism 10)?
The value was 216.5 µg.

What about the “APOE RNA (% control) Spinal Cord” value (human APOE RNA [4]; spinal cord, ICV dose 10 μg) of the same substance?
The value was 79 % control.

And the “APOE RNA (% control) Spinal Cord” value (human APOE RNA [4]; spinal cord, ICV dose 30 μg)?
Its value is 64 % control.

What about the “APOE RNA (% control) Spinal Cord” value (human APOE RNA [4]; spinal cord, ICV dose 100 μg) of the same substance?
Its value is 36 % control.

What about the “APOE RNA (% control) Spinal Cord” value (human APOE RNA [4]; spinal cord, ICV dose 300 μg) of the same substance?
The value was 40 % control.

What about the “APOE RNA (% control) Spinal Cord” value (human APOE RNA [4]; spinal cord, ICV dose 700 μg) of the same substance?
The value was 34 % control.

And the “ED 50 (μg) Spinal Cord” value (human APOE RNA [4]; spinal cord, single ICV bolus, GraphPad Prism 10)?
Its value is 94.0 µg.

And the “APOE RNA (% UTC)” value (human APOE RNA [5]; 5 nM)?
The value was 69 % UTC.

What about the “APOE RNA (% UTC)” value (human APOE RNA [5]; 13 nM) of the same substance?
Its value is 103 % UTC.

And the “APOE RNA (% UTC)” value (human APOE RNA [5]; 33 nM)?
Its value is 89 % UTC.

What about the “APOE RNA (% UTC)” value (human APOE RNA [5]; 82 nM) of the same substance?
The value was 69 % UTC.

What about the “APOE RNA (% UTC)” value (human APOE RNA [5]; 205 nM) of the same substance?
Its value is 64 % UTC.

What about the “APOE RNA (% UTC)” value (human APOE RNA [5]; 512 nM) of the same substance?
Its value is 31 % UTC.

And the “APOE RNA (% UTC)” value (human APOE RNA [5]; 1,280 nM)?
Its value is 45 % UTC.

What about the “APOE RNA (% UTC)” value (human APOE RNA [5]; 3,200 nM) of the same substance?
Its value is 55 % UTC.

What about the “APOE RNA (% UTC)” value (human APOE RNA [5]; 8,000 nM) of the same substance?
The value was 25 % UTC.

And the “APOE RNA (% UTC)” value (human APOE RNA [5]; 20,000 nM)?
Its value is 12 % UTC.

What about the IC50 (human APOE RNA [5]) of the same substance?
The IC50 was 690 nM.
